Laboratory results as given in patent US20220275534A1, “Peptide Library Production Method” (The University of Tokyo, priority 2018, published 2022).
Non-standard residues stand in square brackets, D forms with d. No end group written: not given here. *: point of attachment. prenyl = prenyl group added to Trp by KgpF, CC(C)=CC*

Assays:
[1] = tested on: KgpF; details: literature finding; cited from earlier work
[2] = tested on: KgpF; test: Prenylation of artificial cyclic peptides with 160 μM KgpF at 0° C., 20 hours (Conditions 13/14 and 19/20; Examples 10, 14, 19; Tables 6 and 18); assay type: biochemical, Microcystis aeruginosa; parameters: key: 5: strong intensity; 4: medium intensity; 3: weak intensity; 2: very weak intensity; 1: no peak; N/A: not observed; details: Table 18; Conditions 13 and 14 (160 μM KgpF, 0° C., 20 hours); NSGGVS added to C terminal
Procedure: The artificial cyclic peptides Clone-M1 to M9 shown below were obtained by translation and synthesis in the artificial translation system (Conditions 13) developed by the present inventors. The peptides thus obtained were then reacted with 160 μM KgpF in the system shown in (Conditions 14) at 0° C. for 20 hours.
(Conditions 13) • FIT system: v8s/v11.0 • 19aa-Met: 0.5 mM • ClAc-D-Tyr-tRNA^fMetCUA: 90 μM • Reaction: 37° C., 60 min. • Scale: 2.5 μL scale
After the above reaction was performed, the reaction product was incubated at 25° C. for 12 minutes.
Then, a cyclization reaction was performed under the following conditions. • Translated mixture amount: 2.5 μL (mixture obtained by the above reaction) • EDTA: 18 mM • Reaction: 42° C., 60 min. • Scale: 2.75 μL scale
(Conditions 14) • Translated mixture amount: 2.75 μL (mixture obtained under (Conditions 13)) • KOH: 6.0 mM • Mg(OAc)2: 9.0 mM • Tris-HCl (pH 8.3) 15 mM • KgpF: 160 μM • DMAPP: 2 mM • Reaction: 0° C., 20 hours
The artificial cyclic peptides shown below were obtained by translation and synthesis in the artificial translation system (Conditions 19) developed by the present inventors. The peptides thus obtained were then reacted with 160 μM KgpF in the system shown in (Conditions 20) at 0° C. for 20 hours.
(Conditions 19) • FIT system: v8s/11.0 • 19aa-Met: 0.5 mM • ClAc-D-Tyr-tRNA^fMetCUA: 90 μM • Reaction: 37° C., 60 min. • Scale: 2.5 μL scale
(Conditions 20) • Translated mixture amount: 2.75 μL (mixture obtained under (Conditions 19)) • KOH: 6.0 mM • Mg(OAc)2: 9.0 mM • Tris-HCl (pH 8.3): 15 mM • KgpF: 160 μM • DMAPP: 2 mM • Reaction: 0° C., 20 hours
Then, the compound library was provided for a step of screening cyclic peptides having interaction with an enzyme MetAP1 (Human) as in the scheme shown in FIG. 8. It has been confirmed that with regards to some of the peptides shown in FIG. 10, peptides having these sequences are modified by prenylation as shown in Table 18 by bringing them into contact with KgpF under conditions shown in (Conditions 13) and (Conditions 14).
Target sequence in this assay (as listed by the source): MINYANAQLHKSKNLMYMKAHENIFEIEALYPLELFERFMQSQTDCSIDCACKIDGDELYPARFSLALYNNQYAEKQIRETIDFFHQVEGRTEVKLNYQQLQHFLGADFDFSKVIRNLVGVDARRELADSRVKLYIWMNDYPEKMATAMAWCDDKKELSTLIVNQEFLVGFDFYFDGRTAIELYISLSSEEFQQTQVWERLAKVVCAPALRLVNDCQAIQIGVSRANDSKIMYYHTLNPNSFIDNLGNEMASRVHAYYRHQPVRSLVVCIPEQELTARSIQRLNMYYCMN

[3] = target: MetAP1 (Homo sapiens, UniProt P53582); test: MetAP1 inhibition test of prenylated cyclic peptide (probe fluorescence); assay type: biochemical; details: prenylated peptide at 1 μM, 5 μM or 10 μM; cofactor Mn2+ or Co2+ 100 μM; MetAP1 1 μM; 37° C., 120 min (FIG. 13)
Procedure: A MetAP1 inhibition test was performed in vitro using the prenylated Met2, Met3a-L, and Met3-1 at concentrations of 1 μM, 5 μM or 10 μM in the presence of a MetAP1 cofactor Mn^2+ or Co^2+. In the test, enzymatic activity was measured by detecting probe fluorescence, that is, fluorescence emitted depending on the enzymatic activity of MetAP1.
(Conditions) • Scale: 20 μL • Cyclic peptide: 1, 5, 10 μM • MnCl2 or CoCl2: 100 μM • MetAP1 enzymatic activity probe: 1 μM • MetAP1: 1 μM • Tris (pH7.6): 25 mM • NaCl: 75 mM • Reaction: 37° C., 120 min.
After the reaction, the fluorescence intensity of the probe was measured using a plate reader.

| Molecule | prenylation by KgpF [1] | Peak intensity, The number of prenyl groups added 0 [2] | Peak intensity, The number of prenyl groups added 1 [2] | inhibition of the enzymatic activity of MetAP1 [3] |
| --- | --- | --- | --- | --- |
| O=C(N[C@@H](Cc1c[nH]c2ccccc12)C(=O)O)OCC1c2ccccc2-c2ccccc21 [Fmoc-Trp-OH] | low efficiency |  |  |  |
| Cyclic [WLNGDNNWSTP]: main-chain cyclized peptide of 11 residues formed from precursor peptide KgpE; natural substrate giving Kawaguchipeptin A (SEQ ID NO: 386) (main-chain cyclized) | prenylates two Trp residues |  |  |  |
| Met3: prenylated cyclic peptide identified by screening with MetAP1 as a target (Ac-[dY]KRKAW(prenyl)ICQTAVYCNSGGVS; thioether (positions not given here); not fully specified (C-terminus)) |  | 2 | 5 | inhibit the enzymatic activity of MetAP1 |
| Met3a-L: cyclic peptide SEQ ID NO: 362 from MetAP1 screening, Fmoc solid-phase synthesis, prenylated with KgpF (YKRKAWLC; also: cyclic, ring not given here, prenylated with KgpF) |  |  |  | inhibit the enzymatic activity of MetAP1 |
